Assay results as given in PMC12113998, “Exploring Multivalent Architectures for Binding and Stabilization of N-Acetylgalactosamine 6-Sulfatase” (Molecules, 2025).
Where “and” joins values, the source holds several entries; their conditions need not be identical. Identical values can stand only once. Like-named read-outs stand apart in the source and are kept apart here. Marks after values point to notes of the source that are not given here.

How the values were obtained:
[1] = test system: rhGALNS; set-up: method as in PMID 31905715; details: preliminary studies; cited from earlier work
[2] = molecular target: T1, N-acetylgalactosamine-6-sulfatase (GALNS) (Homo sapiens, UniProt P34059); experiment: GALNS inhibition in leukocyte homogenate from healthy donors (4-methylumbelliferyl-β-galactoside-6-sulfate substrate, fluorescence); assay type: biochemical; details: for inhibition at 1000 µM: pH 4.3, 1 mM inhibitor
T1 construct: Isolated leukocytes were disrupted by sonication; from tissue; host or cells: human leukocytes from healthy donors (sonicated homogenate)
T1 sequence (P34059 27-522): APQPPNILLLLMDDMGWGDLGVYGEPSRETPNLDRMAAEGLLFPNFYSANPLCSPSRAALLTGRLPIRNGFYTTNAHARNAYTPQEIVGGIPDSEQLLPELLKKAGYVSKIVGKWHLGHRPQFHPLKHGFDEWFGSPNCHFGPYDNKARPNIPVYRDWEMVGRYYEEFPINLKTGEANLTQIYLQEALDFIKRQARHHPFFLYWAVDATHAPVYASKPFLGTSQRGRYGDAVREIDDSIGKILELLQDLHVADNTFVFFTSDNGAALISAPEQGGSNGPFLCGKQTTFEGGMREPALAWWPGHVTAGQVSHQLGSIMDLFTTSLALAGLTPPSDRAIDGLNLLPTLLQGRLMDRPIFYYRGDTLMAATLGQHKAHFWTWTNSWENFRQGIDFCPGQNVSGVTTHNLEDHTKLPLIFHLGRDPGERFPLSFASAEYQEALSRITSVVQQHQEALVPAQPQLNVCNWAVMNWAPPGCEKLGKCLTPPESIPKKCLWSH
Method: A preliminary biological screening of the newly synthesized multivalent compounds at 1 mM inhibitor concentration was performed against GALNS in leukocytes isolated from healthy donors. Enzymatic assays were performed in triplicate by incubating leukocyte homogenate, compound, and substrate (4-methylumbelliferyl-β-galactoside-6-sulfate.Na) in Na-acetate/acetic acid buffer (pH 4.3) at 37 °C for 17 h, followed by the addition of β-galactosidase from Aspergillus oryzae and further incubation to release 4-methylumbelliferone. The fluorescence was measured, and the inhibition percentages were calculated relative to the control. The results are summarized in Table 1, Table 2, Table 3 and Table 4, along with new inhibition data toward GALNS of multivalent inhibitors whose synthesis was reported previously by our group (23, 26, 30, 51, 52–54). For compounds showing poor to negligible inhibitory activity, only the GALNS inhibition percentage at 1 mM was reported.
Enzymatic assays towards human GALNS in leukocytes isolated from healthy donors.
All experiments on biological materials were performed in accordance with the ethical standards of the institutional research committee and with the 1964 Helsinki Declaration and its later amendments. In keeping with ethical guidelines, all blood and cell samples were obtained for storage and analysed only after written informed consent of the patients (and/or their family members) was obtained, using a form approved by the local Ethics Committee (Assigned code: Lysolate “Late -onset Lysosomal Storage Disorders (LSDs) in the differential diagnosis of neurodegenerative diseases: development of new diagnostic procedures and focus on potential pharmacological chaperones (PCs).” Project ID code: 16774_bio, 5 May 2020, Comitato Etico Regionale per la Sperimentazione Clinica della Regione Toscana, Area Vasta Centro, Florence, Italy). Control and patient samples were anonymized and used only for research purposes.
A preliminary biological screening of compounds at 1 mM was performed towards GALNS in leukocytes isolated from healthy donors (controls). Isolated leukocytes were disrupted by sonication, and a micro BCA protein assay kit (Sigma–Aldrich) was used to determine the total protein amount for the enzymatic assay, according to the manufacturer instructions. Enzyme activity was measured by setting the reaction in 0.2 mL tubes and performing the experiments in triplicates as follows. Compound solution (3 µL), 4.29 μg/μL leukocyte homogenate 1:5 (7 μL) and 20 µL of 4-methylumbelliferyl-β-galactoside-6-sulfate.Na substrate solution (6.66mM) in Na-Acetate/acetic acid buffer (0.1 M/0.1 M, pH 4.3) containing 0.1 M NaCl, 0.02% (w/v) NaN3 and 5 mM Pb-acetate were incubated for 17 h at 37 °C. After step one, the tubes were placed on an ice cooler and the reaction was stopped by addition of 5 µL of Na-phosphate buffer (0.9 M, pH 4.3) containing 0.02 % (w/v) of NaN3 and by efficient mixing with vortex. Then, 10 µL of β-galactosidase from Aspergillus oryzae (β-Gal-A-10U) were added to each sample and samples were incubated for 2 h at 37°C. At the end of this period the tubes were placed on an ice cooler and the samples were transferred in a cooled flat –bottomed 96 well plate and the reaction was immediately stopped with 2 00 µL of NaHCO3/Na2CO3 buffer (0.5 M/0.5 M pH 10.7) containing 0.025% (w/v) of Triton X -100. Fluorescence was measured in a SpectraMax M2 microplate reader (Molecular-Devices) using a 365 nm excitation wavelength and a 435 nm emission wavelength. Percentage of GALNS inhibition was given with respect to the control (without compound).
Experiments were performed in triplicate, and the mean ± S. D. was calculated.
Figure S52. GALNS activity in the absence Figure S53. GALNS activity in the absence (Ctrl) and presence of scaffold 12 at a 1 mM (Ctrl) and presence of the new multivalent […]
The corresponding calculated inhibition of the main text) at a 1 mM concentration in […]

[3] = 1H-NMR stability study of the acetal in D2O at pH* 4.3, 37 °C; assay type: physicochemical; details: after 19 h
Method: The presence of pH-sensitive acetal groups in β-D-glucose-derived dendrimers led us to question whether these compounds would remain stable under the biological conditions of the screening assay. To assess their stability under the experimental conditions, we synthesized 2-(nonyloxy)tetrahydro-2H-pyran acetal following the literature procedure as a control and conducted an NMR stability study. The NMR sample was prepared in D2O at pH* 4.3, where pH* refers to the pH measured in a D2O solution using an H2O-calibrated pH meter. […] The hydrolysis of the 2-(nonyloxy)tetrahydro-2H-pyran acetal yielded nonan-1-ol and 5-hydroxypentanal. The compound stability at pH* 4.3, assessed by ¹H-NMR experiments, is reported in the Supporting Information.

[4] = test system: GALNS; details: cited from earlier work
[5] = molecular target: T1, N-acetylgalactosamine-6-sulfatase (GALNS); set-up: method as in doi:10.1039/C6RA15806D; details: cited from earlier work
[6] = human leukocyte extracts, pH 4.3, 37 °C, 17 h
[7] = calculated considering 35 as the monovalent reference compound

O=C(Nc1cccc2c(=O)cc(-c3nnn[nH]3)oc12)c1ccc(OCCCCc2ccccc2)cc1 [pranlukast]
effect on activity and thermostability of rhGALNS [1]: increase the activity and thermostability of rhGALNS

OCC1C(O)C(O)CN1CCCCCCn1cc(COCC(COCc2cn(CCCCCCN3CC(O)C(O)C3CO)nn2)(COCc2cn(CCCCCCN3CC(O)C(O)C3CO)nn2)COCc2cn(CCCCCCN3CC(O)C(O)C3CO)nn2)nn1 (centres unmarked) [Compound 31]
inhibition at 1000 µM [2, 6]: 73%

OC[C@@H]1[C@@H](O)[C@H](O)CN1CCCCCCn1cc(COCC(COCc2cn(CCCCCCN3C[C@@H](O)[C@H](O)[C@H]3CO)nn2)(COCc2cn(CCCCCCN3C[C@@H](O)[C@H](O)[C@H]3CO)nn2)COCc2cn(CCCCCCN3C[C@@H](O)[C@H](O)[C@H]3CO)nn2)nn1 [Compound 30]
inhibition at 1000 µM [2, 6]: 35%

CC(C)C[C@H]1C(=O)N2CCC[C@H]2[C@]2(O)O[C@](NC(=O)[C@@H]3C=C4c5cccc6[nH]c(Br)c(c56)C[C@H]4N(C)C3)(C(C)C)C(=O)N12 [bromocriptine]
effect on activity and thermostability of rhGALNS [1]: increase the activity and thermostability of rhGALNS

NC(COCc1cn(CCCCCCN2C[C@@H](O)[C@H](O)[C@H]2CO)nn1)(COCc1cn(CCCCCCN2C[C@@H](O)[C@H](O)[C@H]2CO)nn1)COCc1cn(CCCCCCN2C[C@@H](O)[C@H](O)[C@H]2CO)nn1 [Compound 26]
inhibition at 1000 µM [2, 6]: < 75%

OCC1C(O)C(O)C2CC(n3cc(COCC(COCc4cn(C5CC6C(O)C(O)C(CO)N6C5)nn4)(COCc4cn(C5CC6C(O)C(O)C(CO)N6C5)nn4)COCc4cn(C5CC6C(O)C(O)C(CO)N6C5)nn4)nn3)CN12 (centres unmarked) [Compound 54]
inhibition at 1000 µM [2, 6]: 9%

CC(=O)OCC1OC(OCCCCCCn2cc(CO)nn2)C(OC(C)=O)C(OC(C)=O)C1OC(C)=O (centres unmarked) [Compound 48]
IC50 ([2]; human leukocyte extracts, cell prints mM under a µM head): > 1 mM
inhibition at 1000 µM [2, 6]: 16%

O=C1[C@H](CC[C@H](O)c2ccc(F)cc2)[C@@H](c2ccc(O)cc2)N1c1ccc(F)cc1 [ezetimibe]
effect on activity and thermostability of rhGALNS [1]: increase the activity and thermostability of rhGALNS

OC[C@@H]1[C@@H](O)[C@H](O)CN1CCCCCCn1cc(COCC(COCc2cn(CCCCCCN3C[C@@H](O)[C@H](O)[C@H]3CO)nn2)OCc2cn(CCCCCCN3C[C@@H](O)[C@H](O)[C@H]3CO)nn2)nn1 [Compound 28]
inhibition at 1000 µM [2, 6]: < 75%

C#CCOCC(COCC#C)(COCC#C)NC(=O)c1cc(C(=O)NC(COCC#C)(COCC#C)COCC#C)cc(C(=O)NC(COCC#C)(COCC#C)COCC#C)c1 [Compound 12]
inhibition at 1000 µM [2, 6]: 25%

CCCCCCCCCOC1CCCCO1 (centres unmarked) [2-(nonyloxy)tetrahydro-2H-pyran acetal, 2-(nonyloxy)tetrahydro-2H-pyran]
stability at pH* 4.3 by 1H-NMR [3]: remained stable

O=C(NC(COCc1cn(CCN2C[C@@H](O)[C@H](O)[C@H]2CO)nn1)(COCc1cn(CCN2C[C@@H](O)[C@H](O)[C@H]2CO)nn1)COCc1cn(CCN2C[C@@H](O)[C@H](O)[C@H]2CO)nn1)c1ccc([N+](=O)[O-])cc1 [Compound 51]
inhibition at 1000 µM [2, 6]: 49%

OC[C@@H](C[C@H]1N[C@H](CO)[C@@H](O)[C@@H]1O)OC[C@H](O)C[C@H]1N[C@H](CO)[C@@H](O)[C@@H]1O [Compound 3]
IC50 [4]: 0.3 µM

O=C(CCCCC(=O)NC(COCc1cn(CCCCCCN2CC(O)C(O)C2CO)nn1)(COCc1cn(CCCCCCN2CC(O)C(O)C2CO)nn1)COCc1cn(CCCCCCN2CC(O)C(O)C2CO)nn1)NC(COCc1cn(CCCCCCN2CC(O)C(O)C2CO)nn1)(COCc1cn(CCCCCCN2CC(O)C(O)C2CO)nn1)COCc1cn(CCCCCCN2CC(O)C(O)C2CO)nn1 (centres unmarked) [Compound 33]
rp/n (multivalent effect) [2, 7]: 2.4

CCCCCCCCN1C[C@@H](O)C(O)[C@H](O)C1 [Compound 55]
% Inhibition (1 mM) ([2]; 1 mM inhibitor, human leukocyte extracts, pH 4.3, 37 °C, 17 h): 33%

O=C(NC(COCc1cn(CCCCCCN2CCCC2)nn1)(COCc1cn(CCCCCCN2CCCC2)nn1)COCc1cn(CCCCCCN2CCCC2)nn1)c1cc(C(=O)NC(COCc2cn(CCCCCCN3CCCC3)nn2)(COCc2cn(CCCCCCN3CCCC3)nn2)COCc2cn(CCCCCCN3CCCC3)nn2)cc(C(=O)NC(COCc2cn(CCCCCCN3CCCC3)nn2)(COCc2cn(CCCCCCN3CCCC3)nn2)COCc2cn(CCCCCCN3CCCC3)nn2)c1 [Compound 38]
IC50 ([2]; human leukocyte extracts): 0.07 ± 0.015 mM

O=C(NC(COCc1cn(CCCCCCN2C[C@H](O)[C@H](O)[C@H]2CO)nn1)(COCc1cn(CCCCCCN2C[C@H](O)[C@H](O)[C@H]2CO)nn1)COCc1cn(CCCCCCN2C[C@H](O)[C@H](O)[C@H]2CO)nn1)c1cc(C(=O)NC(COCc2cn(CCCCCCN3C[C@H](O)[C@H](O)[C@H]3CO)nn2)(COCc2cn(CCCCCCN3C[C@H](O)[C@H](O)[C@H]3CO)nn2)COCc2cn(CCCCCCN3C[C@H](O)[C@H](O)[C@H]3CO)nn2)cc(C(=O)NC(COCc2cn(CCCCCCN3C[C@H](O)[C@H](O)[C@H]3CO)nn2)(COCc2cn(CCCCCCN3C[C@H](O)[C@H](O)[C@H]3CO)nn2)COCc2cn(CCCCCCN3C[C@H](O)[C@H](O)[C@H]3CO)nn2)c1 [Compound 2]
rp (relative potency) [2, 7]: 59
rp/n (multivalent effect) [2, 7]: 6.5 ^[d]
rp (relative potency) ([2]; calculated with respect to the scaffold 38): 0.8
% Inhibition (1 mM) ([5]; 1 mM inhibitor, human leukocyte extracts): 85 ^[a] %
IC50 ([5]; human leukocyte extracts): 85 ± 8 µM
rp/n ([5]; positive MVE as previously reported): 6.5 and 6.5–9.2
